Series [1] concerns gene expression in bone marrow. In words: GeneChip microarray survey of E2 regulated gene expression, bone marrow. The series is classed as in vivo, mouse. The conditions noted are these: 20 μg/kg/day E2 s.c. six weeks; WT and ERβKO ovariectomized mice; number of genes. As to the method:
(§1) FIG. 1 depicts a pattern analysis generated by a GeneChip microarray analysis. […] Two hours following the final dose, the mice were euthanized and 13 tissues removed for RNA preparation. Two independent studies were performed, with total RNA pooled from two groups of three animals for each condition. Gene expression was quantified by GeneChip microarrays using murine U74 sub A arrays. Data were analyzed for patterns indicating either ERα or ERβ dependent regulation as shown. […] The number of genes in each tissue that matched the theoretical induction (↑) or repression (↓) patterns for ERα or ERβ are indicated.
(§2) One week later, the animals were ovariectomized.
GeneChip—Total RNA was prepared separately from each individual organ by using Trizol (Invitrogen) followed by subsequent repurification on Rneasy columns (Qiagen). In general, two pools of RNA were created using equal amounts of RNA from three mice. […]
Target Preparation and Array Hybridization—Total RNA was used to generate biotin labeled cRNA target as described (8) which was hybridized to the murine MG_U74Av2 probe arrays (Affymetrix, Santa Clara, Calif.) for 16 h at 45° C. Eleven biotin-labeled cRNAs at defined concentration were spiked into each hybridization and used to convert average difference values to frequencies expressed as parts per million. […]

Series [2] relates to gene expression in the kidney. The experiment in a line: Real-time PCR of kidney gene expression in ovariectomized WT mice.
Description: FIGS. 5A-5B show a series of graphs showing expression levels for various genes. […] (B) Uterine wet weights (mg) and gene expression values (mean±SEM).
FIGS. 6A-6D show a series of bar graphs depicting relative expression levels for various genes.
as §2
Background: Quantitative PCR measures a nucleic acid by following its amplification.

In series [3] the test system is gene expression in the uterus. The experiment in a line: GeneChip microarray survey of E2 regulated gene expression, uterus. The conditions noted are these: 20 μg/kg/day E2 s.c. six weeks; WT and ERβKO ovariectomized mice; number of genes. As to the method:
as §1, §2
GeneChip—Total RNA was prepared separately from each individual organ by using Trizol (Invitrogen) followed by subsequent repurification on Rneasy columns (Qiagen). In general, two pools of RNA were created using equal amounts of RNA from three mice. For small organs such as pituitary, an equal amount of RNA from six animals was combined.
Target Preparation and Array Hybridization—Total RNA was used to generate biotin labeled cRNA target as described (8) which was hybridized to the murine MG_U74Av2 probe arrays (Affymetrix, Santa Clara, Calif.) for 16 h at 45° C. Eleven biotin-labeled cRNAs at defined concentration were spiked into each hybridization and used to convert average difference values to frequencies expressed as parts per million.
The resulting data set was queried for genes whose regulation was dependent on ERα or ERβ.

Setting [4] is: 10 μg/kg/day E2 or 5 mg/kg/day tamoxifen, 6 weeks, FIG. 8.

We go through one compound from US7371207B2 (Wyeth, priority 2002, dated 2008).

In the case of `C[C@]12CC[C@@H]3c4ccc(O)cc4CC[C@H]3[C@@H]1CC[C@@H]2O` [E2, 17β-estradiol], in series [1], the “ERα pattern regulations in bone marrow, number of inductions” value is listed as 3 and the “ERα pattern regulations in bone marrow, number of repressions” value came out at 3. In series [2] (setting [4]), the “BCAT1 expression in kidney, WT mice” value is given as “induced”; the “CYP7B1 expression in kidney, WT mice” value is “induced”; the “TF expression in kidney, WT mice” value was “induced”. For the same compound, the “ED50 for stimulation of CYP7B1, TF, STAT5A, and BCAT1 in the kidney” value in series [2] (ovariectomized WT mice, various doses s.c. six weeks, FIG. 5) is recorded as “about 3 μg/kg/day”. Further, in series [3], the “ERα pattern regulations in uterus, number of inductions” value was 514 and the “ERα pattern regulations in uterus, number of repressions” value is 19.
